Reference: patent US10189843B2, “Fused pyrazole derivative having autotaxin inhibitory activity” (The University of Tokyo, priority 2014, dated 2019)

Target: T1, Human autotaxin enzyme (Homo sapiens, UniProt Q13822)
T1 construct: purchased R&D System
Assay: Evaluation of autotaxin inhibitor, Method C (18:0 Lyso PC substrate, choline assay, Resorufin fluorescence)
Assay type: biochemical
Details: Method C (Test Example 3), read-out: Inhibitory activity (enzyme inhibitory activity, IC50)
Method in brief: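 Recombinant human autotaxin with compound and 200 μM 18:0 Lyso PC (stock) in Tris-HCl pH 7.5, NaCl, MgCl2, Triton X-100, 2 h RT. Released choline detected via choline oxidase/peroxidase/Amplex-type reagent, 20 min, resorufin fluorescence 531/598 nm; % inhibition vs no-compound and no-enzyme controls, concentration-response curve.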

| SMILES | IC50 [nM] |
| --- | --- |
| CCCCC1CN(CC(=O)NCC(C)(C)O)C(=O)c2cc(-c3ccc(Cl)cc3)nn21 (centres unmarked) [Compound I-0229] | 100 to 1000 |
| CCCCC1CN(CC2CN(CC#N)C(=O)O2)C(=O)c2cc(-c3ccc(Cl)cc3)nn21 (centres unmarked) [Compound I-0299] | 10 to 100 |
| C[C@H]1CN(CC(=O)N(C)CCC#N)C(=O)c2cc(-c3ccc(C#N)cc3NC(=O)C(F)(F)F)nn21 [Compound I-0354] | < 10 |
| CCCCC1CN(Cc2ccc(C#N)cc2)C(=O)c2cc(N3[C@@H]4CC[C@H]3CC(F)(F)C4)nn21 (some centres unmarked) [Compound I-0307] | ≥ 1000 |
| CCCCC1CN(CCOC)C(=O)c2cc(-c3ccc(Cl)cc3)nn21 (centres unmarked) [Compound I-0271] | 100 to 1000 |
| CC(=O)Nc1cc(C#N)ccc1-c1cc2n(n1)[C@@H](C)CN(C[C@H]1CNC(=O)O1)C2=O [Compound I-0338] | 10 to 100 |
| C[C@H]1CN(CC(=O)N2CCCC2)C(=O)c2cc(-c3ccc(Cl)cc3)nn21 [Compound I-0154] | ≥ 1000 |
| CCCCC1CN(Cc2ccc(C#N)cc2)C(=O)c2cc(N3CCC(F)(F)CC3)nn21 (centres unmarked) [Compound I-0302] | 100 to 1000 |
| CCCCCC1CN(CC(=O)NC(CCC)C(=O)O)C(=O)c2cc(-c3ccc(Cl)cc3)nn21 (centres unmarked) [Compound I-0062] | < 10 |
| CNC(=O)Nc1cc(Cl)ccc1-c1cc2n(n1)[C@@H](C)CN(Cc1ccc(C#N)cc1)C2=O [Compound I-0342] | 100 to 1000 |
| CCCCCC1CN(CC(=O)N2CCNC(=O)C2)C(=O)c2cc(-c3ccc(Cl)cc3)nn21 (centres unmarked) [Compound I-0037] | 10 to 100 |
| CCCCC1CN(CC(=O)N2CCC(C#N)CC2)C(=O)c2cc(-c3ccc(Cl)cc3)nn21 (centres unmarked) [Compound I-0220] | 100 to 1000 |
| CCOCC1CNC(=O)c2cc(-c3ccc(Cl)cc3)nn21 (centres unmarked) [Compound I-0198] | ≥ 1000 |
| O=C(O)C1CCN(C(=O)CN2C(=O)c3cc(-c4ccc(Cl)cc4)nn3[C@@H]3CCC[C@@H]32)CC1 [Compound I-0013] | ≥ 1000 |
| CCCCC1CN(CC(=O)N2CCCC(C(N)=O)C2)C(=O)c2cc(-c3ccc(Cl)cc3)nn21 (centres unmarked) [Compound I-0210] | 10 to 100 |
| CCCCC1CN(Cc2ccc(C#N)cc2)C(=O)c2cc(-c3ccc(Cl)cc3C#N)nn21 (centres unmarked) [Compound I-0280] | 10 to 100 |
| CC(=O)Nc1cc(Cl)c(F)cc1-c1cc2n(n1)[C@@H](C)CN(Cc1ccc(C#N)cc1)C2=O [Compound I-0330] | < 10 |
| CCCCCC1CN(CC(=O)N2CCC(C(=O)O)CC2)C(=O)c2cc(-c3ccc(Cl)cc3)nn21 (centres unmarked) [Compound I-0007] | < 10 |
| CCNc1cc(Cl)cc(CO)c1-c1cc2n(n1)[C@@H](C)CN(Cc1ccc(C#N)cc1)C2=O [Compound I-0356] | < 10 |
| CC(C#N)Nc1cc(Cl)ccc1-c1cc2n(n1)[C@@H](C)CN(Cc1ccc(C#N)cc1)C2=O (some centres unmarked) [Compound I-0325] | ≥ 1000 |
| CC(=O)Nc1cc(C#N)ccc1-c1cc2n(n1)[C@@H](C)CN(Cc1ccc(C#N)cc1)C2=O [Compound I-0335] | < 10 |
| CCCCCC1CN(CC(=O)N2CCCCC2CO)C(=O)c2cc(-c3ccc(Cl)cc3)nn21 (centres unmarked) [Compound I-0090] | 10 to 100 |
| CCCCCC1CN(CC(=O)Nc2ccncc2)C(=O)c2cc(-c3ccc(Cl)cc3)nn21 (centres unmarked) [Compound I-0084] | ≥ 1000 |
| CCCCCC1CN(CC(=O)N2CCCC(C)C2)C(=O)c2cc(-c3ccc(Cl)cc3)nn21 (centres unmarked) [Compound I-0115] | 100 to 1000 |
| CC(=O)NC1=C(c2cc3n(n2)[C@@H](C)CN(Cc2ccc(C#N)cc2)C3=O)C(O)CC(C(F)(F)F)C1 (some centres unmarked) [Compound I-0369] | 100 to 1000 |
| CCNc1cc(Cl)ccc1-c1cc2n(n1)[C@@H](C)CN(Cc1ccc(C#N)cc1)C2=O [Compound I-0328] | 100 to 1000 |
| CCCCCCC1CCCN1C(=O)CN1CC(CCCCC)n2nc(-c3ccc(Cl)cc3)cc2C1=O (centres unmarked) [Compound I-0031] | ≥ 1000 |

| SMILES | IC50 [nM] |
| --- | --- |
| CCCCCC1CN(CC(=O)N2CCC[C@H](C)C2)C(=O)c2cc(-c3ccc(Cl)cc3)nn21 (some centres unmarked) [Compound I-0080] | 10 to 100 |
| CCCCC1CN(CC(=O)NC2(C#N)CC2)C(=O)c2cc(-c3ccc(Cl)cc3)nn21 (centres unmarked) [Compound I-0187] | 100 to 1000 |
| CCCCC1CN(Cc2ccc(C#N)cc2)C(=O)c2cc(-c3ccc(Cl)cc3NS(C)(=O)=O)nn21 (centres unmarked) [Compound I-0308] | ≥ 1000 |
| CCCCCC1CN(CC(=O)Nc2cccc(C(=O)O)c2)C(=O)c2cc(-c3ccc(Cl)cc3)nn21 (centres unmarked) [Compound I-0049] | 10 to 100 |
| COCc1cc(Cl)ccc1-c1cc2n(n1)[C@@H](C)CN(Cc1ccc(C#N)cc1)C2=O [Compound I-0329] | ≥ 1000 |
| CCCCC1CN(CC(=O)N(CC)CCC#N)C(=O)c2cc(-c3ccc(Cl)cc3)nn21 (centres unmarked) [Compound I-0214] | 10 to 100 |
| CCCCCC1CN(Cc2ccccc2OCCCN(C)C)C(=O)c2cc(-c3ccc(Cl)cc3)nn21 (centres unmarked) [Compound I-0138] | 100 to 1000 |
| CCCCC1CN(CC2CCOC2)C(=O)c2cc(-c3ccc(Cl)cc3)nn21 (centres unmarked) [Compound I-0269] | 10 to 100 |
| CCCCCC1CN(Cc2ccc(CC(=O)OC)cc2)C(=O)c2cc(-c3ccc(Cl)cc3)nn21 (centres unmarked) [Compound I-0143] | ≥ 1000 |
| CCOCC1CN(Cc2cccc(C(=O)O)c2)C(=O)c2cc(-c3ccc(Cl)cc3)nn21 (centres unmarked) [Compound I-0175] | 10 to 100 |
| CCCCCC1CN(CC(=O)N2CCC(O)CC2)C(=O)c2cc(-c3ccc(Cl)cc3)nn21 (centres unmarked) [Compound I-0094] | 10 to 100 |
| CCCCCC1CN(CC(=O)Nc2ccc(CCC(=O)O)cc2)C(=O)c2cc(-c3ccc(Cl)cc3)nn21 (centres unmarked) [Compound I-0058] | 100 to 1000 |
| O=C(O)C1CCN(C(=O)CN2C(=O)c3cc(-c4ccc(Cl)cc4)nn3[C@H]3CCC[C@H]32)CC1 [Compound I-0012] | 100 to 1000 |
| N#Cc1ccc(CN2CC(COCC(F)(F)C(F)F)n3nc(-c4ccc(Cl)cc4)cc3C2=O)cc1 (centres unmarked) [Compound I-0190] | 10 to 100 |
| CCCCCC1CN(Cc2ccc(C#N)cc2)C(=O)c2cc(-c3ccc(Cl)cc3)nn21 (centres unmarked) [Compound I-0132] | 10 to 100 |
| CCCCC1CN(Cc2ccccn2)C(=O)c2cc(-c3ccc(Cl)cc3)nn21 (centres unmarked) [Compound I-0256] | 100 to 1000 |
| CCOC(=O)CN1C[C@@H](C)n2nc(-c3ccc(Cl)cc3)cc2C1=O [Compound I-0020] | ≥ 1000 |
| CCCCCC1CN(Cc2cccc(CC(=O)O)c2)C(=O)c2cc(-c3ccc(Cl)cc3)nn21 (centres unmarked) [Compound I-0120] | 10 to 100 |
| CCCCCC1CN(CC(=O)N2CCC(=O)CC2)C(=O)c2cc(-c3ccc(Cl)cc3)nn21 (centres unmarked) [Compound I-0113] | 10 to 100 |
| CCCCC1CN(Cc2ccc(C#N)cc2)C(=O)c2cc(-c3ccc(C#N)cc3)nn21 (centres unmarked) [Compound I-0201] | 10 to 100 |
| CCCCCC1CN(CC(=O)N2CCCCC2CC(=O)O)C(=O)c2cc(-c3ccc(Cl)cc3)nn21 (centres unmarked) [Compound I-0068] | < 10 |
| CCCCCC1CN(Cc2cccc(CC(=O)OCC)c2)C(=O)c2cc(-c3ccc(Cl)cc3)nn21 (centres unmarked) [Compound I-0125] | ≥ 1000 |
| CCCCCC1CN(c2cccc(OCC(=O)O)c2)C(=O)c2cc(-c3ccc(Cl)cc3)nn21 (centres unmarked) [Compound I-0203] | ≥ 1000 |
| C[C@H]1CN(CC(=O)N(C)CCC#N)C(=O)c2cc(-c3ccc(C#N)cc3NC(=O)CO)nn21 [Compound I-0360] | 100 to 1000 |
| CC(C)(O)CNC(=O)CN1CC(COCC(F)(F)F)n2nc(-c3ccc(Cl)cc3)cc2C1=O (centres unmarked) [Compound I-0315] | 100 to 1000 |
| CCCCCC1CN(CC(=O)N2CCCC(C(=O)O)C2)C(=O)c2cc(-c3ccc(Cl)cc3)nn21 (centres unmarked) [Compound I-0050] | 10 to 100 |
